Measured values from patent US20170231929A1, “METHOD FOR ENHANCING IMMUNE CELL FUNCTION AND METHOD FOR ASSESSING IMMUNE CELL MULTIFUNCTIONALITY” (NATIONAL UNIVERSITY CORPORATION OKAYAMA UNIVERSITY, priority 2014, published 2017).

Test system: CD8^+T cells
Assay: Multifunctionality of CD8^+T cells of metastatic lung cancer patients (stage IV) after metformin treatment of PBMC (flow cytometer)
Format: cell-based, human
Conditions: for Decrease, IFNγ 1-cytokine-producing cell / Decrease, IFNγ/IL-2 2-cytokine-producing cell / Decrease, IFNγ/TNFα 2-cytokine-producing cell / Decrease, IFNγ/TNFα/IL2 3-cytokine-producing cell / Increase, IFNγ 1-cytokine-producing cell / Increase, IFNγ/IL-2 2-cytokine-producing cell / Increase, IFNγ/TNFα 2-cytokine-producing cell / Increase, IFNγ/TNFα/IL2 3-cytokine-producing cell / No Change, IFNγ 1-cytokine-producing cell / No Change, IFNγ/IL-2 2-cytokine-producing cell / No Change, IFNγ/TNFα 2-cytokine-producing cell / No Change, IFNγ/TNFα/IL2 3-cytokine-producing cell: Cancer Patients (stage IV)
Protocol: 1. Peripheral blood was obtained from a test subject, and PBMC was separated by a density-gradient centrifugation using a lymphocyte-separating reagent Ficoll-Paque® (GE Healthcare). 3 mL of Ficoll-Paque® was dispensed in a 15-mL tube. 8 mL of the peripheral blood was gently placed on the reagent. At this time, care should be taken not to mix Ficoll-Paque® with the peripheral blood. Centrifugation was performed at 400 g for 30 minutes, thereby separating PBMC. 2. The separated PBMC was preserved in a −150° C. freezer or liquid nitrogen using Bambang Car cell preservation liquid by adjusting the cell number to 2.0×10^6 cell/tube. 3. In the test, the thawed PBMC was cultured for 1 to 10 hours in the presence or absence of […]. The culture was performed using a 24-well plate, and the cell number was adjusted to about 5.0×10^5 cell/well. 4. The cells were collected after 1 to 10 hours, washed with medium, and cultured in the presence of a cell activation reagent (potent nanomolar activator of protein kinase C (PMA, 50 ng/mL), ionomycin (1 μM)) for 6 hours, thereby non-specifically stimulating T cells. At this time, BD Gorgi Stop™ was added to keep the produced cytokines inside the cells. 5. The cells were isolated and washed twice with a cell-staining buffer. First, staining of CD8, PD-1, Tim-3, which are molecules expressed on the T cell surface, was performed. In the staining, a staining buffer was added in an amount of 50 μL per sample. The culture was performed at 4° C. for 30 minutes. 6. The cells were collected and washed twice with a cell-staining buffer. 500 μL of BD Cytofix/Cytoperm was added and cultured at 4° C. for 30 minutes. 7. The cells were collected and washed twice with BD Perm/Wash™. Staining of cytokines IL-2, TNFα, and IFNγ was performed. In the staining, BD Perm/Wash™ was added in an amount of 50 μL per sample. The culture was performed at 4° C. for 30 minutes. 8. The cells were collected and washed twice with BD Perm/Wash™, and 200 μL of BD Perm/Wash™ was added. 9. Analysis was performed using a FACSCanto™ II flow cytometer (Becton, Dickinson and Company).
Among the PBMC treated with PMA/ionomycin in the method shown in (2) above, first, a gate was applied to CD8^+T cells using a FACSCanto™ II flow cytometer (Becton, Dickinson and Company), and then […] were removed by FSC-A and FSC-H. Using parameters FSC-A and SSC-A, a gate was applied to a lymphocyte group, thereby analyzing expression of PD-1 and Tim-3. Further, intracellular cytokines IFNγ, TNFα, and IL-2 were stained, and multifunctionality of CD8^+T cells contained in the PBMC was analyzed (FIG. 1).
This Example analyzed test results regarding recovery of multifunctionality of CD8^+T cells by metformin in 10 healthy subjects and five metastatic lung cancer patients (stage IV) by the same method as in Example 1. As in Table 3, in Table 3, in addition to the total CD8^+T cells (total CD8T), cytokine production abilities were confirmed in four kinds of CD8^+T cells, i.e., PD-1-positive, Tim-3-negative CD8^+T cells, PD-1-positive, Tim-3-positive CD8^+T cells, PD-1-negative, Tim-3-positive CD8^+T cells, and PD-1-negative, Tim-3-negative CD8^+T cells (Table 4). Cytokine production ability refers to cytokine production ratios of three kinds of cytokines (A), IFNγ/TNFα/IL-2, two kinds of cytokines (B), IFNγ/TNFα, two kinds of cytokines (C), FNγ/IL-2, and one kind of cytokine (D), IFNγ.

In the case of `CN(C)C(=N)N=C(N)N` [metformin], the “Decrease, IFNγ 1-cytokine-producing cell” value (PD-1+, Tim-3+, patients/total) is reported as 1/5, the “Decrease, IFNγ/IL-2 2-cytokine-producing cell” value (PD-1+, Tim-3+, patients/total) is reported as 1/5 and the “Decrease, IFNγ/TNFα 2-cytokine-producing cell” value (PD-1+, Tim-3+, patients/total) is reported as 1/5. The “Decrease, IFNγ/TNFα/IL2 3-cytokine-producing cell” value (PD-1+, Tim-3+, patients/total) was 0/5, the “Increase, IFNγ 1-cytokine-producing cell” value (PD-1+, Tim-3+, patients/total) was 1/5 and the “Increase, IFNγ/IL-2 2-cytokine-producing cell” value (PD-1+, Tim-3+, patients/total) was 1/5. For the same compound, the “Increase, IFNγ/TNFα 2-cytokine-producing cell” value (PD-1+, Tim-3+, patients/total) was 1/5, the “Increase, IFNγ/TNFα/IL2 3-cytokine-producing cell” value (PD-1+, Tim-3+, patients/total) was 0/5 and the “No Change, IFNγ 1-cytokine-producing cell” value (PD-1+, Tim-3+, patients/total) was 3/5. For the same compound, the “No Change, IFNγ/IL-2 2-cytokine-producing cell” value (PD-1+, Tim-3+, patients/total) was 3/5, the “No Change, IFNγ/TNFα 2-cytokine-producing cell” value (PD-1+, Tim-3+, patients/total) was 3/5 and the “No Change, IFNγ/TNFα/IL2 3-cytokine-producing cell” value (PD-1+, Tim-3+, patients/total) was 5/5. The “Decrease, IFNγ 1-cytokine-producing cell” value (PD-1+, Tim-3−, patients/total) was 1/5, the “Decrease, IFNγ/IL-2 2-cytokine-producing cell” value (PD-1+, Tim-3−, patients/total) was 1/5 and the “Decrease, IFNγ/TNFα 2-cytokine-producing cell” value (PD-1+, Tim-3−, patients/total) was 2/5. The “Decrease, IFNγ/TNFα/IL2 3-cytokine-producing cell” value (PD-1+, Tim-3−, patients/total) was 0/5, the “Increase, IFNγ 1-cytokine-producing cell” value (PD-1+, Tim-3−, patients/total) was 0/5 and the “Increase, IFNγ/IL-2 2-cytokine-producing cell” value (PD-1+, Tim-3−, patients/total) was 4/5. For the same compound, the “Increase, IFNγ/TNFα 2-cytokine-producing cell” value (PD-1+, Tim-3−, patients/total) was 1/5, the “Increase, IFNγ/TNFα/IL2 3-cytokine-producing cell” value (PD-1+, Tim-3−, patients/total) was 4/5 and the “No Change, IFNγ 1-cytokine-producing cell” value (PD-1+, Tim-3−, patients/total) was 4/5. The “No Change, IFNγ/IL-2 2-cytokine-producing cell” value (PD-1+, Tim-3−, patients/total) was 0/5, the “No Change, IFNγ/TNFα 2-cytokine-producing cell” value (PD-1+, Tim-3−, patients/total) was 2/5 and the “No Change, IFNγ/TNFα/IL2 3-cytokine-producing cell” value (PD-1+, Tim-3−, patients/total) was 1/5. For the same compound, the “Decrease, IFNγ 1-cytokine-producing cell” value (PD-1−, Tim-3+, patients/total) was 2/5, the “Decrease, IFNγ/IL-2 2-cytokine-producing cell” value (PD-1−, Tim-3+, patients/total) was 3/5 and the “Decrease, IFNγ/TNFα 2-cytokine-producing cell” value (PD-1−, Tim-3+, patients/total) was 2/5. The “Decrease, IFNγ/TNFα/IL2 3-cytokine-producing cell” value (PD-1−, Tim-3+, patients/total) was 0/5, the “Increase, IFNγ 1-cytokine-producing cell” value (PD-1−, Tim-3+, patients/total) was 3/5 and the “Increase, IFNγ/IL-2 2-cytokine-producing cell” value (PD-1−, Tim-3+, patients/total) was 0/5. For the same compound, the “Increase, IFNγ/TNFα 2-cytokine-producing cell” value (PD-1−, Tim-3+, patients/total) was 1/5, the “Increase, IFNγ/TNFα/IL2 3-cytokine-producing cell” value (PD-1−, Tim-3+, patients/total) was 0/5 and the “No Change, IFNγ 1-cytokine-producing cell” value (PD-1−, Tim-3+, patients/total) was 0/5. For the same compound, the “No Change, IFNγ/IL-2 2-cytokine-producing cell” value (PD-1−, Tim-3+, patients/total) was 2/5, the “No Change, IFNγ/TNFα 2-cytokine-producing cell” value (PD-1−, Tim-3+, patients/total) was 2/5 and the “No Change, IFNγ/TNFα/IL2 3-cytokine-producing cell” value (PD-1−, Tim-3+, patients/total) was 5/5. For the same compound, the “Decrease, IFNγ 1-cytokine-producing cell” value (PD-1−, Tim-3−, patients/total) was 2/5, the “Decrease, IFNγ/IL-2 2-cytokine-producing cell” value (PD-1−, Tim-3−, patients/total) was 2/5 and the “Decrease, IFNγ/TNFα 2-cytokine-producing cell” value (PD-1−, Tim-3−, patients/total) was 2/5. The “Decrease, IFNγ/TNFα/IL2 3-cytokine-producing cell” value (PD-1−, Tim-3−, patients/total) was 0/5, the “Increase, IFNγ 1-cytokine-producing cell” value (PD-1−, Tim-3−, patients/total) was 1/5 and the “Increase, IFNγ/IL-2 2-cytokine-producing cell” value (PD-1−, Tim-3−, patients/total) was 1/5. The “Increase, IFNγ/TNFα 2-cytokine-producing cell” value (PD-1−, Tim-3−, patients/total) was 1/5, the “Increase, IFNγ/TNFα/IL2 3-cytokine-producing cell” value (PD-1−, Tim-3−, patients/total) was 2/5 and the “No Change, IFNγ 1-cytokine-producing cell” value (PD-1−, Tim-3−, patients/total) was 2/5. The “No Change, IFNγ/IL-2 2-cytokine-producing cell” value (PD-1−, Tim-3−, patients/total) was 2/5, the “No Change, IFNγ/TNFα/IL2 3-cytokine-producing cell” value (PD-1−, Tim-3−, patients/total) was 3/5 and the “Decrease, IFNγ 1-cytokine-producing cell” value (Total CD8T, patients/total) was 3/5. The “Decrease, IFNγ/IL-2 2-cytokine-producing cell” value (Total CD8T, patients/total) was 0/5, the “Decrease, IFNγ/TNFα 2-cytokine-producing cell” value (Total CD8T, patients/total) was 4/5 and the “Decrease, IFNγ/TNFα/IL2 3-cytokine-producing cell” value (Total CD8T, patients/total) was 0/5. The “Increase, IFNγ 1-cytokine-producing cell” value (Total CD8T, patients/total) was 0/5, the “Increase, IFNγ/IL-2 2-cytokine-producing cell” value (Total CD8T, patients/total) was 1/5 and the “Increase, IFNγ/TNFα 2-cytokine-producing cell” value (Total CD8T, patients/total) was 1/5. The “Increase, IFNγ/TNFα/IL2 3-cytokine-producing cell” value (Total CD8T, patients/total) was 1/5, the “No Change, IFNγ 1-cytokine-producing cell” value (Total CD8T, patients/total) was 2/5 and the “No Change, IFNγ/IL-2 2-cytokine-producing cell” value (Total CD8T, patients/total) was 4/5. For the same compound, the “No Change, IFNγ/TNFα 2-cytokine-producing cell” value (Total CD8T, patients/total) was 0/5, the “No Change, IFNγ/TNFα/IL2 3-cytokine-producing cell” value (Total CD8T, patients/total) was 4/5 and the “Increase + No Change, IFNγ/TNFα/IL2, share of patients” value (Total CD8T, Patients (stage IV)) was 100%. The “Increase + No Change, IFNγ/TNFα/IL2” value (Total CD8T, Patients (stage IV), patients/total) was 5/5 and the “decrease in multifunctionality by the metformin treatment (three kinds of cytokines)” value (cancer patients (stage IV)) was “very small (zero)”.
